Measured values taken from patent US20230257385A1, “SALT AND SOLID FORMS OF TABERNANTHALOG” (priority 2021, published 2023).

Assays:
[1] = Suspension equilibration of sorbate salt at 20 and 40° C. (Example 10, Experiments 3, 4, 9); type: physicochemical; conditions: one solvent per sample; for Observations (t = 1 d @ 40° C.) / Observations (t = 1 d @ 20° C.) / Observations (t = 10 d @ 20° C.) / Observations (t = 10 d @ 40° C.): sorbate salt Form A in 5 vol solvent; for Observations (t = 0 @ 40° C.) / Observations (t = 0 @ 20° C.): sorbate salt Form A, ca. 50 mg in 5 vol solvent; for XRPD (IPC, 6 d, wet): moist pellet after 6 d; for XRPD (post oven dried): pellet after oven drying
Description: The purpose of this panel is to determine if Form A evolves into a supra-ordinate form. The companion panel at 40° C. set-point is in place to detect enantiotropic behaviour via different relative proportions in different solvents. XRPD data of the moist pellets obtained from the suspension equilibration study at 20° C.
The relevant solvent (5 vol) was added to the appropriate vial and the suspensions were stirred and warmed to the predetermined temperature with stirring. […]

[2] = Qualitative solubility screen of Tabernanthalog sorbate salt (Example 10, Experiment 2); type: physicochemical; conditions: Tabernanthalog sorbate salt (input Form A), one solvent per sample; for Assignment (wet pellet XRPD): product crystallised in solubility screen, centrifuged wet pellet; for Assignment (dry pellet XRPD): same pellets dried under reduced pressure
Description: The qualitative solubility screen was carried out to determine the range of solvents incorporated into future suspension equilibration panels. Products that crystallised were centrifuged and analysed as wet pellet by XRPD, dried under reduced pressure and re-analysed by XRPD, with selected samples further analysed by TGA and ^1H NMR spectroscopy.
If insoluble at 5 vol, the solvent quantity was increased to 10 vol, 15 vol and 20 vol of the respective solvent. The suspensions that occurred upon cooling down were centrifuged and the solvent wet pellets were analysed by XRPD.
The insoluble suspensions were additionally worked up for XRPD analysis. The resultant powder patterns were subsequently cross-referenced against the input supplied material.

[3] = suspension equilibration at 40° C.
[4] = suspension equilibration at 20° C.

Row | Structure (SMILES) | Observations (t = 1 d @ 40° C.) [1] | Observations (t = 0 @ 40° C.) [1] | XRPD (IPC, 6 d, wet) [1, 3] | Assignment (wet pellet XRPD) [2] | Assignment (dry pellet XRPD) [2] | Observations (t = 10 d @ 40° C.) [1] | further results
1 | C/C=C/C=C/C(=O)O.COc1ccc2c3c([nH]c2c1)CCN(C)CC3 [Experiment 4-Sample E] | Solution | Partial | Pattern #5 | – | – | – | –
2 | CC=CC=CC(=O)O.COc1ccc2c3c([nH]c2c1)CCN(C)CC3 [Experiment 3-Sample F] | – | – | – | – | – | – | Observations (t = 1 d @ 20° C.) [1]: Suspension; Observations (t = 10 d @ 20° C.) [1]: Suspension; Observations (t = 0 @ 20° C.) [1]: Suspension; XRPD (IPC, 6 d, wet) [1, 4]: Form A; XRPD (post oven dried) [1, 4]: Form A
3 | CC=CC=CC(=O)O.COc1ccc2c3c([nH]c2c1)CCN(C)CC3 [Experiment 3-Sample M] | – | – | – | – | – | – | Observations (t = 1 d @ 20° C.) [1]: Suspension; Observations (t = 10 d @ 20° C.) [1]: Suspension; Observations (t = 0 @ 20° C.) [1]: Suspension; XRPD (IPC, 6 d, wet) [1, 4]: Form A; XRPD (post oven dried) [1, 4]: Form A
4 | CC=CC=CC(=O)O.COc1ccc2c3c([nH]c2c1)CCN(C)CC3 [Experiment 3-Sample B] | – | – | – | – | – | – | Observations (t = 1 d @ 20° C.) [1]: Suspension; Observations (t = 10 d @ 20° C.) [1]: Suspension; Observations (t = 0 @ 20° C.) [1]: Suspension; XRPD (IPC, 6 d, wet) [1, 4]: Form A; XRPD (post oven dried) [1, 4]: Form A
5 | CC=CC=CC(=O)O.COc1ccc2c3c([nH]c2c1)CCN(C)CC3 [Experiment 2-Sample G1] | – | – | – | Form A | Form A | – | –
6 | C/C=C/C=C/C(=O)O.COc1ccc2c3c([nH]c2c1)CCN(C)CC3 [Experiment 4-Sample M] | Suspension | Suspension | Form A | – | – | Suspension | XRPD (post oven dried) [1, 3]: Form A
7 | CC=CC=CC(=O)O.COc1ccc2c3c([nH]c2c1)CCN(C)CC3 [Experiment 3-Sample R] | – | – | – | – | – | – | Observations (t = 1 d @ 20° C.) [1]: Suspension; Observations (t = 10 d @ 20° C.) [1]: Suspension; Observations (t = 0 @ 20° C.) [1]: Suspension; XRPD (IPC, 6 d, wet) [1, 4]: Pattern #2; XRPD (post oven dried) [1, 4]: Form A
8 | C/C=C/C=C/C(=O)O.COc1ccc2c3c([nH]c2c1)CCN(C)CC3 [Experiment 2-Sample N1] | – | – | – | Form A + split reflections | Form A | – | –
9 | CC=CC=CC(=O)O.COc1ccc2c3c([nH]c2c1)CCN(C)CC3 [Experiment 2-Sample H1] | – | – | – | Form A + new shoulders | Form A + new shoulders | – | –
10 | C/C=C/C=C/C(=O)O.COc1ccc2c3c([nH]c2c1)CCN(C)CC3 [Experiment 4-Sample P] | Suspension | Suspension | Form A | – | – | Suspension | XRPD (post oven dried) [1, 3]: Form A
11 | CC=CC=CC(=O)O.COc1ccc2c3c([nH]c2c1)CCN(C)CC3 [Experiment 4-Sample I] | Suspension | Suspension | Form A | – | – | Suspension | XRPD (post oven dried) [1, 3]: Form A
12 | C/C=C/C=C/C(=O)O.COc1ccc2c3c([nH]c2c1)CCN(C)CC3 [Experiment 4-Sample O] | Suspension | Suspension | – | – | – | Suspension | –
13 | CC=CC=CC(=O)O.COc1ccc2c3c([nH]c2c1)CCN(C)CC3 [Experiment 3-Sample S] | – | – | – | – | – | – | Observations (t = 1 d @ 20° C.) [1]: Solution; Observations (t = 0 @ 20° C.) [1]: Solution
14 | CC=CC=CC(=O)O.COc1ccc2c3c([nH]c2c1)CCN(C)CC3 [Experiment 4-Sample D] | Suspension | Suspension | Form A | – | – | Suspension | XRPD (post oven dried) [1, 3]: Form A
15 | CC=CC=CC(=O)O.COc1ccc2c3c([nH]c2c1)CCN(C)CC3 [Experiment 3-Sample T] | – | – | – | – | – | – | Observations (t = 1 d @ 20° C.) [1]: Solution; Observations (t = 10 d @ 20° C.) [1]: Solution; Observations (t = 0 @ 20° C.) [1]: Solution
16 | CC=CC=CC(=O)O.COc1ccc2c3c([nH]c2c1)CCN(C)CC3 [Experiment 4-Sample K] | Suspension | Suspension | Form A | – | – | Suspension | XRPD (post oven dried) [1, 3]: Form A
17 | CC=CC=CC(=O)O.COc1ccc2c3c([nH]c2c1)CCN(C)CC3.O | – | – | – | Pattern #1 | Converted into Form A | – | –
18 | C/C=C/C=C/C(=O)O.COc1ccc2c3c([nH]c2c1)CCN(C)CC3 [Experiment 4-Sample B] | Suspension | Suspension | Form A | – | – | Suspension | XRPD (post oven dried) [1, 3]: Form A
19 | CC=CC=CC(=O)O.COc1ccc2c3c([nH]c2c1)CCN(C)CC3 [Experiment 4-Sample N] | Suspension | Suspension | Form A | – | – | Suspension | XRPD (post oven dried) [1, 3]: Form A
20 | C/C=C/C=C/C(=O)O.COc1ccc2c3c([nH]c2c1)CCN(C)CC3 [Experiment 4-Sample A] | Suspension | Suspension | Form A | – | – | Suspension | XRPD (post oven dried) [1, 3]: Form A
21 | CC=CC=CC(=O)O.COc1ccc2c3c([nH]c2c1)CCN(C)CC3 [Experiment 2-Sample J1] | – | – | – | Form A, some shift of d-spacings | Form A | – | –
22 | CC=CC=CC(=O)O.COc1ccc2c3c([nH]c2c1)CCN(C)CC3 [Experiment 2-Sample P1] | – | – | – | Form A | Form A | – | –
23 | CC=CC=CC(=O)O.COc1ccc2c3c([nH]c2c1)CCN(C)CC3 [Experiment 2-Sample R1] | – | – | – | Form A | Form A | – | –
24 | COc1ccc2c3c([nH]c2c1)CCN(C)CC3 [Experiment 2-Sample D1] | – | – | – | Form A | Form A | – | Assignment (wet pellet XRPD) ([2]; listed as Experiment 2-Sample E1): Form A + split reflections 5.90º,
25 | CC=CC=CC(=O)O.COc1ccc2c3c([nH]c2c1)CCN(C)CC3 [Experiment 2-Sample I1] | – | – | – | Oiled | – | – | –
26 | CC=CC=CC(=O)O.COc1ccc2c3c([nH]c2c1)CCN(C)CC3 [Experiment 2-Sample Q1] | – | – | – | Form A + new shoulders | Form A | – | –
27 | COc1ccc2c3c([nH]c2c1)CCN(C)CC3.O=C(O)/C=C/C(=O)O [Experiment 2-Sample C1] | – | – | – | Form A | Form A | – | –
28 | CC=CC=CC(=O)O.COc1ccc2c3c([nH]c2c1)CCN(C)CC3 [Experiment 2-Sample O1] | – | – | – | Form A + split reflections | Form A | – | –
29 | CC=CC=CC(=O)O.COc1ccc2c3c([nH]c2c1)CCN(C)CC3 [Experiment 2-Sample M1] | – | – | – | Form A + shoulder 22.89º 2 | Form A + new shoulder | – | –
30 | CC=CC=CC(=O)O.COc1ccc2c3c([nH]c2c1)CCN(C)CC3 [Experiment 2-Sample L1] | – | – | – | Form A | Form A | – | –
